Data taken from ChEMBL document CHEMBL6153032, “Discovery of a highly potent, N-terminal domain-targeting degrader of AR-FL/AR-V7 for the treatment of prostate cancer” (Eur J Med Chem, 2025).
Activity calls are given as the source filed them. No cut-off for these calls is given here.

Columns and labels:
[1] = test system: CWR22R; assay: Antitumor activity against human 22Rv1 cells xenografted in BALB/c nude mouse assessed as redcution in tumor volume at 10 mg/kg, iv administered once daily for 21 days; format: functional, organism-based; conditions: time 21.0 day
[2] = target: T1, Protein cereblon/Androgen receptor (Homo sapiens, UniProt P10275+Q96SW2); assay: PROTAC activity at full length Androgen receptor/CRBN in human LNCaP cells assessed as reduction in full length androgen receptor level incubated for 24 hrs by Western blot analysis; format: cell-based
[3] = test system: Protein cereblon/Androgen receptor (Homo sapiens), P10275+Q96SW2 [UNDEFINED MUTATION]; assay: (§1) PROTAC activity at AR-V7/CRBN in human 22Rv1 cells assessed as reduction in AR-V7 level incubated for 24 hrs by Western blot analysis; format: cell-based; conditions: CWR22R, dose <= 5.0 µM
[4] = target: T1, Protein cereblon/Androgen receptor; assay: as §1; format: cell-based; conditions: cwr22r
Target sequence in this assay (P10275 whole entry, looked up, change not shown): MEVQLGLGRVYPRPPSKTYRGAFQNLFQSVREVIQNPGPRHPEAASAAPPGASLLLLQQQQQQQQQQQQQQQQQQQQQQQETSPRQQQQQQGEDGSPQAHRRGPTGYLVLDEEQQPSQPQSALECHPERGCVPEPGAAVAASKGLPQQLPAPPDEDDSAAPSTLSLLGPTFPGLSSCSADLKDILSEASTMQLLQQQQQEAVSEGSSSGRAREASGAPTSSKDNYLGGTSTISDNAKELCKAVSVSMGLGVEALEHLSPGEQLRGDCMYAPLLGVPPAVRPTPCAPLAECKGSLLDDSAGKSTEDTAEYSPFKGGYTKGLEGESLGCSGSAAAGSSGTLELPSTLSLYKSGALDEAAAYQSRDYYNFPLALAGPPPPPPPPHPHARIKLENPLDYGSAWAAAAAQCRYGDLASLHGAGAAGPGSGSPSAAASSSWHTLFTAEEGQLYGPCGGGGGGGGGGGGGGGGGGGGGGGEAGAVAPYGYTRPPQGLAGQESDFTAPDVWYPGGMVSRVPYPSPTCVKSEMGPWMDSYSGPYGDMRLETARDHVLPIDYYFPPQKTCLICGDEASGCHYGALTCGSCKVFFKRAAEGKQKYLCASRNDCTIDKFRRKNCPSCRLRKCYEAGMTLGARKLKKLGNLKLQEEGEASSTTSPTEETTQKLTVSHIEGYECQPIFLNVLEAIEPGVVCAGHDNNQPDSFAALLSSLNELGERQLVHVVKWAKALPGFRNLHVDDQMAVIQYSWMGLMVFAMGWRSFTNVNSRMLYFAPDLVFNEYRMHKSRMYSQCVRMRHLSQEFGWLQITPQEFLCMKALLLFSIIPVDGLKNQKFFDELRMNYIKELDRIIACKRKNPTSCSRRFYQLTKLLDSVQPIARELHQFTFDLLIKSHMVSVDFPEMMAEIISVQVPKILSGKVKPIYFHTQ
Target sequence in this assay (Q96SW2 whole entry, looked up, change not shown): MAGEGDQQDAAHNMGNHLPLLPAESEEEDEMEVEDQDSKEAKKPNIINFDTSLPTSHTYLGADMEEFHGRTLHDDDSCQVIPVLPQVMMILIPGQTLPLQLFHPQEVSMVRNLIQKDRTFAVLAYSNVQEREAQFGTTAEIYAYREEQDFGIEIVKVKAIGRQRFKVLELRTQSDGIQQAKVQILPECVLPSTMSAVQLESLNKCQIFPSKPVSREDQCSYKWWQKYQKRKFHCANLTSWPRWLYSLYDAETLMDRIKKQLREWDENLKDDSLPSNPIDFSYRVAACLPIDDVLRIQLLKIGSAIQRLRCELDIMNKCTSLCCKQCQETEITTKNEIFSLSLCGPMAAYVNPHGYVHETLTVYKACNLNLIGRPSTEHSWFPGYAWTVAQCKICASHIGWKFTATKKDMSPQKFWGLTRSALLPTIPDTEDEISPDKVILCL

[5] = test system: LNCaP; assay: PROTAC activity at AR-V7/CRBN in human LNCaP cells assessed as reduction in AR-V7 level incubated for 24 hrs by Western blot analysis; format: cell-based; conditions: dose <= 5.0 µM
[6] = test system: CWR22R; assay: Downregulation of KLK2 mRNA level in human 22Rv1 cells incubated for 24 hrs by qRT-PCR analysis; format: functional, cell-based; conditions: dose 100-500 nM
[7] = target: T1, Protein cereblon/Androgen receptor; assay: PROTAC activity at full length Androgen receptor/CRBN in human 22Rv1 cells assessed as induction of full length Androgen receptor degradation at 0.1 uM incubated for 24 hrs in presence of CHX by Western blot analysis; format: cell-based
Target sequence in this assay (P10275 whole entry, looked up): as the sequence (P10275 whole entry, looked up, change not shown) above
Target sequence in this assay (Q96SW2 whole entry, looked up): as the sequence (Q96SW2 whole entry, looked up, change not shown) above

[8] = target: T1, Protein cereblon/Androgen receptor; assay: PROTAC activity at full length Androgen receptor/CRBN in human 22Rv1 cells assessed as induction of full length androgen receptor degradation at 100 nM incubated for 12 hrs in presence of Thalidomide by Western blot analysis; format: cell-based
Target sequence in this assay (P10275 whole entry, looked up): as the sequence (P10275 whole entry, looked up, change not shown) above
Target sequence in this assay (Q96SW2 whole entry, looked up): as the sequence (Q96SW2 whole entry, looked up, change not shown) above

[9] = test system: Protein cereblon/Androgen receptor (Homo sapiens), P10275+Q96SW2 [UNDEFINED MUTATION]; assay: PROTAC activity at AR-V7/CRBN in human 22Rv1 cells assessed as induction of AR-V7 degradation at 100 nM incubated for 12 hrs in presence of MG132 by Western blot analysis; format: cell-based; conditions: CWR22R
[10] = test system: LNCaP; assay: Antiproliferative activity against human LNCaP cells assessed as cell viability incubated for 4 days by CCK-8 assay; format: functional, cell-based; conditions: 96 h
[11] = test system: CWR22R; assay: Inhibition of colony formation in human 22Rv1 cells assessed as reduction in colony formation incubated for 14 days; format: functional, cell-based; conditions: dose 1-100 nM, time 14.0 day
[12] = test system: CWR22R; assay: Induction of apoptosis in human 22Rv1 cells assessed as early apoptotic cells at 100 nM incubated for 48 hrs by Annexin V/FITC staining based flow cytometry analysis (reference value: 2.08 %); format: functional
[13] = test system: CWR22R; assay: Induction of apoptosis in human 22Rv1 cells assessed as necrotic cells at 100 nM incubated for 48 hrs by Annexin V/FITC staining based flow cytometry analysis (reference value: 2.31 %); format: functional
[14] = test system: CWR22R; assay: Induction of apoptosis in human 22Rv1 cells assessed as viable cells at 500 nM incubated for 48 hrs by Annexin V/FITC staining based flow cytometry analysis (reference value: 94.49%); format: functional; conditions: read-out: Activity
[15] = test system: CWR22R; assay: Induction of apoptosis in human 22Rv1 cells assessed as early apoptotic cells at 500 nM incubated for 48 hrs by Annexin V/FITC staining based flow cytometry analysis (reference value: 2.08 %); format: functional
[16] = test system: CWR22R; assay: Induction of apoptosis in human 22Rv1 cells assessed as late apoptotic cells at 500 nM incubated for 48 hrs by Annexin V/FITC staining based flow cytometry analysis (reference value: 1.12 %); format: functional
[17] = test system: CWR22R; assay: Induction of cell cycle arrest in human 22Rv1 cells assessed as accumulation of cells at G0/G1 phase at 100 nM incubated for 24 hrs by PI staining based flow cytometry analysis (reference value: 62.66%); format: functional
[18] = test system: CWR22R; assay: Induction of cell cycle arrest in human 22Rv1 cells assessed as accumulation of cells at S phase at 100 nM incubated for 24 hrs by PI staining based flow cytometry analysis (reference value: 28.73%); format: functional
[19] = test system: CWR22R; assay: Induction of cell cycle arrest in human 22Rv1 cells assessed as accumulation of cells at G2/M phase at 100 nM incubated for 24 hrs by PI staining based flow cytometry analysis (reference value: 8.61%); format: functional
[20] = test system: CWR22R; assay: Induction of cell cycle arrest in human 22Rv1 cells assessed as accumulation of cells at S phase at 500 nM incubated for 24 hrs by PI staining based flow cytometry analysis (reference value: […]%); format: functional
[21] = test system: CWR22R; assay: Induction of cell cycle arrest in human 22Rv1 cells assessed as accumulation of cells at G2/M phase at 500 nM incubated for 24 hrs by PI staining based flow cytometry analysis (reference value: 8.61%); format: functional
[22] = Metabolic stability in mouse liver microsome assessed as intrinsic clearance measured upto 45 mins by LC/MS analysis; format: ADME; conditions: liver microsomes, read-out: CLH
[23] = Metabolic stability in mouse liver microsome assessed as half life measured upto 45 mins by LC/MS analysis; format: ADME; conditions: liver microsomes
[24] = Metabolic stability in rat liver microsome assessed as intrinsic clearance measured upto 45 mins by LC/MS analysis; format: ADME; conditions: liver microsomes, read-out: CLH
[25] = Metabolic stability in human liver microsome assessed as half life measured upto 45 mins by LC/MS analysis; format: ADME; conditions: liver microsomes
[26] = Half life in Sprague-Dawley rat 2 mg/kg, iv by LC-MS/MS analysis; format: ADME, organism-based; conditions: in vivo
[27] = AUC (0 to t) in Sprague-Dawley rat 2 mg/kg, iv by LC-MS/MS analysis; format: ADME, organism-based; conditions: in vivo
[28] = MRT (0 to infinity) in Sprague-Dawley rat 2 mg/kg, iv by LC-MS/MS analysis; format: ADME, organism-based; conditions: in vivo
[29] = Initial plasma concentration in Sprague-Dawley rat 2 mg/kg, iv by LC-MS/MS analysis; format: ADME, organism-based
[30] = Volume of distribution at steady state in Sprague-Dawley rat 2 mg/kg, iv by LC-MS/MS analysis; format: ADME, organism-based; conditions: in vivo, read-out: Vdss
[31] = target: Voltage-gated inwardly rectifying potassium channel KCNH2 (Homo sapiens, UniProt Q12809); assay: Inhibition of hERG; format: toxicity
[32] = target: hERG (Homo sapiens, UniProt Q12809); assay: Inhibition of hERG at 10 uM relative to control; format: toxicity
[33] = test system: CWR22R; assay: Antitumor activity against human 22Rv1 cells xenografted in BALB/c nude mouse assessed as redcution in tumor weight at 10 mg/kg, iv administered once daily for 21 days; format: functional, organism-based; conditions: time 21.0 day
[34] = Toxicity in BALB/c mouse assessed as body weight loss at 10 mg/kg, iv administered once daily for 21 days; format: organism-based; conditions: in vivo, 504 h, time 21 day
[35] = test system: CWR22R; assay: Antitumor activity against human 22Rv1 cells xenografted in BALB/c nude mouse assessed as reduction in AR-v7 level at 10 mg/kg, iv administered once daily for 21 days; format: functional, organism-based; conditions: time 21.0 day
[36] = Toxicity in BALB/c mouse assessed as heart damage at 10 mg/kg, iv administered once daily for 21 days by H and E staining based analysis; format: organism-based; conditions: in vivo, 504 h, time 21 day
[37] = Toxicity in BALB/c mouse assessed as liver damage at 10 mg/kg, iv administered once daily for 21 days by H and E staining based analysis; format: organism-based; conditions: in vivo, 504 h, time 21 day
[38] = Toxicity in BALB/c mouse assessed as lung damage at 10 mg/kg, iv administered once daily for 21 days by H and E staining based analysis; format: organism-based; conditions: in vivo, 504 h, time 21 day

Sequence of Protein cereblon/Androgen receptor (Homo sapiens), P10275+Q96SW2 [UNDEFINED MUTATION] (P10275 whole entry, looked up, stated change not applied): as the sequence (P10275 whole entry, looked up, change not shown) above
Sequence of Protein cereblon/Androgen receptor (Homo sapiens), P10275+Q96SW2 [UNDEFINED MUTATION] (Q96SW2 whole entry, looked up, stated change not applied): as the sequence (Q96SW2 whole entry, looked up, change not shown) above
Sequence of hERG (Q12809 whole entry): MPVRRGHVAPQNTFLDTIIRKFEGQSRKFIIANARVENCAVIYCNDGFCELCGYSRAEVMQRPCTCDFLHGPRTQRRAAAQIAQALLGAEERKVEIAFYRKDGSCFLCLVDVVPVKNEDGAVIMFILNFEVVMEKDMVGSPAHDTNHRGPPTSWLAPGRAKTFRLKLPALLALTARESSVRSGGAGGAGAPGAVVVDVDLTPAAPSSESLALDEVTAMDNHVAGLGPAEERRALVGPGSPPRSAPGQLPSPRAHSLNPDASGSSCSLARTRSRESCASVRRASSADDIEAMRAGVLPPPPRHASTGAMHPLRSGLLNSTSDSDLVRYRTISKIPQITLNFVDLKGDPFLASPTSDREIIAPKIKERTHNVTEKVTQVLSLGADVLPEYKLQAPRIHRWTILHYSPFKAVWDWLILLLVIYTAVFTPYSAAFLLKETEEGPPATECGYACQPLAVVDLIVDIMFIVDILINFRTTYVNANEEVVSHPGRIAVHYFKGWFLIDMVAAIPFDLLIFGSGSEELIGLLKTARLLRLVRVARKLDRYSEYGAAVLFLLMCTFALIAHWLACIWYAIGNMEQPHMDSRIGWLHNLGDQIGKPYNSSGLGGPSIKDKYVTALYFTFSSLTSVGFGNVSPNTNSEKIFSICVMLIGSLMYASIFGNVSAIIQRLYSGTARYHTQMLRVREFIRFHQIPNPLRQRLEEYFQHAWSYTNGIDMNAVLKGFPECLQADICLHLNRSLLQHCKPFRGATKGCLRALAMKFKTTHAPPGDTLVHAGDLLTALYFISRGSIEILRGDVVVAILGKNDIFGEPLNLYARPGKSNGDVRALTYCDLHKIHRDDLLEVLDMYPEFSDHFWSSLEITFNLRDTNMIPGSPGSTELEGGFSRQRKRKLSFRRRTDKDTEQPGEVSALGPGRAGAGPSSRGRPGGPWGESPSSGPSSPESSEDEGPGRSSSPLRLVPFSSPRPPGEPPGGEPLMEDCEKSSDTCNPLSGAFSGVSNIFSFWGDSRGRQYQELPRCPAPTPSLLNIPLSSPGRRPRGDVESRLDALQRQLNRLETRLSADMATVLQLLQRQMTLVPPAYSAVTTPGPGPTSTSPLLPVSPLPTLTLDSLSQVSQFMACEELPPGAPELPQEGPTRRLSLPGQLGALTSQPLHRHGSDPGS
Sequence of Voltage-gated inwardly rectifying potassium channel KCNH2 (Q12809 whole entry): as above

SMILES: CC(C)(c1ccc(OCCNc2cccc3c2C(=O)N(C2CCC(=O)NC2=O)C3=O)cc1)c1ccc(OCc2cccc(N3CCOCC3)n2)cc1 (centres undefined)
- Activity [1]: Active
- DC50 [2]: 180 nM
- Activity ([2]; dose <= 5.0 µM): Dose-dependent-effect
- Activity [3]: Dose-dependent-effect
- DC50 [4]: 26 nM
- Activity [5]: Dose-dependent-effect
- Activity [6]: Dose-dependent-effect
- Activity [7]: Active
- Activity [8]: Active
- Activity [9]: Active
- IC50 [10]: 176 nM
- inhibition [11]: Dose-dependent-effect
- Activity [12]: 14.57%
- Activity [13]: 2.13%
- viability at 0.5 µM [14]: 65.1%
- Activity [15]: 16.93%
- Activity [16]: 15.59%
- Activity [17]: 41.16%
- Activity [18]: 43.39%
- Activity [19]: 15.45%
- Activity [20]: 38.58%
- Activity [21]: 21.54%
- CLint scaled [22]: 296 mL/min/kg
- half-life [23]: 18.4 min
- CLint scaled [24]: 40.8 mL/min/kg
- half-life [25]: 37.2 min
- half-life [26]: 158 min
- AUC(0-t) [27]: 2210 ng·h/mL
- MRT inf [28]: 37.2 min
- C0 [29]: 13900 ng/mL
- Vd [30]: 0.571 L/kg
- IC50 [31]: > 10000 nM
- inhibition at 10 µM [32]: < 40%
- Activity [33]: Active
- Activity [34]: Non-toxic
- Activity [35]: Active
- Activity [36]: Non-toxic
- Activity [37]: Non-toxic
- Activity [38]: Non-toxic
